We go through seven compounds from patent US12377152B2, “Compounds for degrading alpha-synuclein aggregates and uses thereof” (APRINOIA THERAPEUTICS LIMITED, priority 2019, dated 2025).

The target in data set [1] is T1, α-synuclein (Homo sapiens (Human), UniProt P37840). As to the kind of experiment: In vivo assay for degrading α-synuclein aggregates (transgenic Line61 mice). As to conditions: 25 mpk, once intravenous, hemibrain, WES System. Here is the method: Male transgenic Line61 mice at age of three-month-old were used for the study. Mice were treated once via intravenous injection with the compound 132168 (25 mpk). Plasma and brain samples were collected at 0.25, 0.5, 1, 2, 4, 8 and 24 h post treatment. Blood samples were collected via cardiac puncture into MiniCollect® 0.5 mL K2EDTA (Potassium ethylenediaminetetraacetic acid) tubes. The blood samples were centrifuged at 3000×g for 10 minutes at room temperature (22° C.). Plasma was transferred to a pre-labeled 1.5 ml LoBind Eppendorf tube (2 aliquot, each ˜[…]), frozen on dry ice and stored at −80° C. until analysis. For brain samples, a perfusion with 0.9% saline was performed before collection. Brain was weighed, hemisected on a cooled surface, weighed and snap frozen. The hemibrain was used for WES System analysis of human α-synuclein in soluble and insoluble fraction. Upon treatment of compound 132168, insoluble α-synuclein fraction decreases 30% compared to DMSO vehicle control, reflecting the reduction of insoluble α-synuclein aggregates.

In another data set the target is α-synuclein aggregates (Homo sapiens (Human), UniProt P37840). As to the kind of experiment: ReNcell VM α-synuclein aggregation assay. It counts as cell-based. The following applies: for DC50: ReNcell VM cells, read-out: Activity (DC50, concentration at which 50% of α-synuclein aggregates has been degraded). On the procedure:
The ReNcell VM α-synuclein aggregation assay was conducted at Charles River Laboratories (CRL). ReNcell VM is an immortalized human neural progenitor cell line derived from the ventral mesencephalon region of the brain. ReNcell VM cells were selected as in vitro cellular model for the α-synuclein aggregation assay, based on their growth features, differentiation potential into terminally differentiated neurons and amenability to adenoviral transduction. Aggregated human wild type α-synuclein was overexpressed through adenoviral delivery. Aggregated α-synuclein was detected with the aggregate-selective anti-α-synuclein antibody MJFR14 using immunocytochemistry; total α-synuclein levels were detected with Syn205 (α/β-synuclein-specific antibody).
The ReNcell VM α-synuclein aggregation assay was applied for compound screening to identify compounds capable of degrading α-synuclein aggregates. […] Immunoreactivity toward aggregated (MJFR14) and total α-synuclein (Syn205) was quantified using high content-based segmentation of immunoactive areas in immunocytochemical images (performed with the IN Cell 2200 (GE Healthcare)), followed by quantification of immunofluorescent intensity (performed by CRL's developed algorithm using IN Cell Developer Toolbox software).
Percentage effect (PE): Inhibition in comparison to BLANK (0.1% DMSO).
PE=100−(signal of compound/average signal BLANK)×100
Compound-induced cytotoxicity (% remaining cells)
% remaining cells=(nuclei count of compound/average nuclei count of BLANK)×100

Data set [2] can be described thus: In vivo pharmacokinetic study. The following applies: mice; for AUC(0-t) / Cmax / Tmax / half-life: mouse. On the procedure: To determine whether the compounds of the present disclosure are capable of crossing the blood brain barrier (BBB), example compound 132168 was administered to mice in a pharmacokinetic study (10 and 25 mg/kg, intravenous).
Animal Husbandry: Mice were housed at animal room environment with ventilation 15 times/hour, lighting 12 hours/day, temperature 20° C. to 24° C. and humidity 40% to 70%. The study rooms were disinfected and cleaned prior to the start of the study and the operation area was cleaned after each dosing or sampling during the study conduct. All animals had free access to food and water during the study. The animals had access to Certified Rodent Diet and water ad libitum. The nutritional composition and levels of contaminants of the diet and impurities and contaminants of the water were monitored by third organization. The health status of the animals was evaluated in accordance with accepted animal husbandry procedures and deemed suitable for experimental use.
Sample Collection & Processing: Approximately 110 μL of whole blood were collected from all animals via facial or cardiac puncture under anesthesia with Isoflurane into test tubes containing potassium ethylenediaminetetraacetate (K2EDTA) at 0.25, 0.5, 1, 2, 4, 8 and 24 hr post dose. Brian samples were collected at 0.25, 0.5, 1, 2, 4, 8 and 24 hours post dose. A perfusion with pre-cold saline will be conducted via cardiac puncture before brain collection. Blood samples were centrifuged at 2000 g at 4° C. for 5 minutes to obtain plasma samples by transferring the supernatants into new tubes. All plasma and brain samples were stored at approximately −70° C. until analysis.
Bioanalytical Method Development: The concentrations of compound in plasma and brain samples were determined using a liquid chromatography with tandem mass spectrometry (LC-MS/MS) based method.

Data set [3] addresses T1, α-synuclein. As to the kind of experiment: In vitro fluorometric α-synuclein binding assay. The following applies: 2 μM α-synuclein, 37° C., 1 hour, fluorescence. Here is the method:
(§1) (A) Expression and purification of recombinant wild-type human α-synuclein: 0.5 mM IPTG was used to induce production of wild type human α-synuclein by bacteria transformed with a full-length α-synuclein expression plasmid. After shaking at 16° C. for 20 hours, cell pellet was resuspended in lysis buffer (10 mM Tris, 1 mM EGTA, 0.75 mM NaCl, 1 mM PMSF, pH 7.5) and lysed by sonication followed by centrifugation (6000 g, 30 min, 4° C.). The supernatant was then boiled at 95° C. for 15 min with manual agitation by every 5 minutes, followed by centrifugation (6000 g, 30 min, 4° C.). Supernatant was dialyzed with (10 mM Tris, 1 mM EGTA, 50 mM NaCl, pH 7.5) buffer and concentrated with concentrator. The collected sample was loaded onto a Superdex200 column, the flow-through fraction was then loaded onto a Q-HP column. Collected fractions with α-synuclein eluates were pooled, concentrated and stored at −80° C.
(§2) (B) Preparation of aggregated α-synuclein: 5 mg/mL of α-synuclein in PBS buffer (pH 7.4) was incubated in tube with at 37° C. with shaking (700 rpm) for 5-10 days.
(C) In vitro fluorometric α-synuclein binding assays: 2 μM α-synuclein was incubated with serially diluted compound (three-fold serial dilutions, from 10 to 0.001 μM) in a 96-well plate at 37° C. for 1 hour. Fluorescence intensity was read by microplate spectrometer. Compound Kd values were calculated using the following equation: Y=Bmax*X/(Kd+X), where X is the concentration of compound; Y is the fluorescence signal of (compound+α-synuclein)−(compound+DMSO); and Bmax is the maximum signal.

For data set [4], the target named is T1, α-synuclein. As to the kind of experiment: PBB5 competition assay. It counts as binding. As to conditions: 2 μM α-synuclein, 0.26 μM PBB5, 37° C., 1 hour. Here is the method:
as §1, §2
(D) PBB5 competition assay: 2 μM of α-synuclein was incubated with 0.26 μM 2-(4-(2-(methylamino)pyridine-5-yl)-1,3-butadiene-1-yl)benzothiazole-6-ol (PBB5) and serially diluted compound (three-fold serial dilution, from 10 to 0.001 μM) in a 96-well plate at 37° C. for 1 hour. Fluorescence intensity (excitation/emission=530/690 nm) of PBB5 was read by microplate spectrometer. Percentage of competition was calculated using the following equation: (Max−well of compound alone)/(Max−Min)*100%, where Max=(α-synuclein+PBB5) signals−(buffer+PBB5) signals; and Min=(buffer+PBB5) signals−(buffer+PBB5) signals. The IC50 value of each compound was calculated with GraphPad Prism software using the “4 Parameter Logistic Model or Sigmoidal Dose-Response Model”: Y=Bottom+(Top−Bottom)/(1+(IC50/X)^HillSlope)

Bounds are passed on as bounds.

Regarding `CN(C)c1ccc(-c2ccc(-c3nc4ccc(NCCCCCOc5ccc6c(c5)CN(C5CCC(=O)NC5=O)C6=O)cc4s3)c(C(F)(F)F)c2)cn1` (centres unmarked) [Compound 132168], on α-synuclein [1], the “decrease of insoluble α-synuclein fraction compared to DMSO vehicle control” value was determined as 30%. Also, the “inhibition of MJFR14 immunoreactivity” value against α-synuclein aggregates (6-day treatment, immunocytochemical images) is “clear inhibition”. In addition, on α-synuclein aggregates, the DC50 was in the range of 10 to 900 nM. Moreover, in data set [2] (10 and 25 mg/kg intravenous), the “blood brain barrier (BBB) penetration” value is “able to penetrate BBB”. Also, the exposure AUC(0-t) (usually exposure summed from dosing to a finite time, without extrapolation to infinity) in data set [2] (Brain, 10 mg/kg intravenous) came to 1330 ng·h/mL; in data set [2] (Brain, 25 mg/kg intravenous), 4070 ng·h/mL; in data set [2] (Plasma, 10 mg/kg intravenous) it was 17800 ng·h/mL; in data set [2] (Plasma, 25 mg/kg intravenous), 48700 ng·h/mL. Also, the Cmax (commonly the highest concentration seen after dosing) in data set [2] (Brain, 10 mg/kg intravenous) was found to be 319 ng/mL; in data set [2] (Brain, 25 mg/kg intravenous), 581 ng/mL. The Tmax (in general, the time at which the peak concentration occurs) was found to be 0.5 h in data set [2] (Brain, 10 mg/kg intravenous) and 4 h in data set [2] (Brain, 25 mg/kg intravenous). For the same compound, the half-life (usually the time in which the quantity being followed falls by half) in data set [2] (Brain, 10 mg/kg intravenous) is 5.88 h; in data set [2] (Plasma, 10 mg/kg intravenous), 2.87 h; in data set [2] (Plasma, 25 mg/kg intravenous) it was 2.12 h.

`CN(C)c1ccc(-c2ccc(-c3nc4ccc(OCCOCCOc5ccc6c(c5)CN(C5CCC(=O)NC5=O)C6=O)cc4s3)cc2)cn1` (centres unmarked) [Compound 163123]: the DC50 at α-synuclein aggregates is over 10000 nM. Also, binding at α-synuclein [3] was put at a Kd of 260 nM. Also, the half-maximal inhibitory concentration (IC50) – broadly, the concentration that inhibits the measured activity by half – at α-synuclein [4] was over 10000 nM.

With `COc1ccc2nc(-c3ccc(-c4ccnc(NCCCCCOc5ccc6c(c5)CN(C5CCC(=O)NC5=O)C6=O)c4)cc3)cn2c1` (centres unmarked) [Compound 165802], the DC50 on α-synuclein aggregates is over 10000 nM. Moreover, the affinity at α-synuclein [3], expressed as Kd, was 2440 nM. Besides, the IC50 at α-synuclein [4] was over 10000 nM.

In the case of `O=C1CCC(N2Cc3cc(OCCCC(=O)Nc4ccc(-c5ccc(-c6cc7ccncc7[nH]6)cc5)cn4)ccc3C2=O)C(=O)N1` (centres unmarked) [Compound 166099], the DC50 at α-synuclein aggregates is over 10000 nM. Besides, the Kd (usually the constant that tells how readily two partners part at equilibrium) at α-synuclein [3] worked out at 5630 nM. Moreover, at α-synuclein [4], the IC50 turned out to be 40 nM.

In the case of `CN(C)c1ccc(-c2ccc(-c3nc4c(OCCOCCOc5ccc6c(c5)CN(C5CCC(=O)NC5=O)C6=O)cccc4s3)cc2)cn1` (centres unmarked) [Compound 166330], the DC50 at α-synuclein aggregates is over 10000 nM. Also, at α-synuclein [3], the Kd is 590 nM. Also, at α-synuclein [4], the IC50 worked out at 2600 nM.

As to `CN(C)c1ccc(-c2ccc(-c3cn4cc(OCCOCCOc5ccc6c(c5)CN(C5CCC(=O)NC5=O)C6=O)ccc4n3)cc2)cn1` (centres unmarked) [Compound 177033], the DC50 at α-synuclein aggregates is over 10000 nM. The compound also returned a Kd on α-synuclein [3] of 650 nM. The IC50 at α-synuclein [4] was found to be 630 nM.

On α-synuclein [3], `CN(C)c1ccc(-c2ccc(-c3nc4ccc(OCCOCCOc5cccc6c5C(=O)N(C5CCC(=O)NC5=O)C6=O)cc4s3)cc2)cn1` (centres unmarked) [Compound 180944] displayed a Kd of 430 nM. This compound also had an IC50 at α-synuclein [4] of 610 nM.
